The values that follow come from US20220323455A1, “FUSED HETEROCYCLIC DERIVATIVES AS ANTIVIRAL AGENTS” (priority 2019, published 2022).

One assay deals with HBV. As to the kind of experiment: HBV replication inhibition assay (BDNA assay) in HepG2.2.15 cells. The assay is classed as cell-based, Hepatitis B virus. Particulars: 6 days, encapsidated HBV DNA in supernatant. The essentials:
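HepG2.2.15 cells were dosed with serially diluted compound (0.5% DMSO), with compound and medium renewed at day 3. Day-6 supernatants were DNase-treated and proteinase K-lysed, and encapsidated HBV DNA was quantified by branched-DNA assay. Percent inhibition was set against DMSO controls and EC50 obtained by nonlinear fit.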
For orientation: EC50 means the concentration needed to bring the measured effect to its halfway point. Consider `C[C@@H]1Cc2nn3c(c2CN1C(=O)Nc1ccnc(C(F)F)c1F)C(F)(F)CCC(CO)C3` (single isomer, unassigned) [Example 82, (3R,8R*)—N-(2-(Difluoromethyl)-3-fluoropyridin-4-yl)-11,11-difluoro-8-(hydroxymethyl)-3-methyl-3,4,8,9,10,11-hexahydro-1H-pyrido[4′,3′:3,4]pyrazolo[1,5-a]azepine-2(7H)-carboxamide], for which the concentration for a half-maximal effect (EC50) was found to be 1 nM.

Take `N#Cc1cc(NC(=O)N2CCc3nn4c(c3C2)C(F)(F)CC(CO)CC4)ccc1F` (single isomer, unassigned) [Example 134, (S*)—N-(3-Cyano-4-fluorophenyl)-11,11-difluoro-9-(hydroxymethyl) -3,4,8,9,10,11-hexahydro-1H-pyrido[4′,3′:3,4]pyrazolo[1,5-a]azepine-2(7H)-carboxamide]: the concentration for a half-maximal effect (EC50) came out at 17 nM.

In the case of `C[C@@H]1Cc2nn3c(c2CN1C(=O)Nc1ccc(F)c(C#N)c1)C(F)(F)CCC(O)(COCC(F)F)C3` (single isomer, unassigned) [Example 93, (3R,8R*)—N-(3-Cyano-4-fluorophenyl)-8-((2,2-difluoroethoxy)methyl)-11,11-difluoro-8-hydroxy-3-methyl-3,4,89,10,11-hexahydro-1H-pyrido[4′,3′:3,4]pyrazolo[1,5-a]azepine-2(7H)-carboxamide], the concentration for a half-maximal effect (EC50) is 45 nM.

With `C[C@@H]1Cc2nn3c(c2CN1C(=O)Nc1ccc(F)c(C#N)c1)C(F)(F)CC(O)(CO)CC3` (single isomer, unassigned) [Example 125, (3R,9R*)—N-(3-Cyano-4-fluorophenyl)-11,11-difluoro-9-hydroxy-9-(hydroxymethyl)-3-methyl-3,4,8,9,10,11-hexahydro-1H-pyrido[4′,3′:3,4]pyrazolo[1,5-a]azepine-2(7H)-carboxamide], the EC50 stood at 14 nM.

Regarding `C#CC1(O)CCC(F)(F)c2c3c(nn2C1)CCN(C(=O)Nc1ccc(F)c(C#N)c1)C3` (single isomer, unassigned) [Example 59, (R*)—N-(3-Cyano-4-fluorophenyl)-8-ethynyl-11,11-difluoro-8-hydroxy-3,4,8,9,10,11-hexahydro-1H-pyrido[4′,3′:3,4]pyrazolo[1,5-a]azepine-2(7H)-carboxamide], the EC50 stood at 5 nM.

For `COC(=O)NCC1CCC(F)(F)c2c3c(nn2C1)C[C@@H](C)N(C(=O)Nc1ccnc(C(F)F)c1F)C3` (single isomer, unassigned) [Example 107, Methyl (((3R,8R*)-2-((2-(difluoromethyl)-3-fluoropyridin-4-yl)carbamoyl)-11,11-difluoro-3-methyl-2,3,4,7,8,9,10,11-octahydro-1H-pyrido[4′,3′:3,4]pyrazolo[1,5-a]azepin-8-yl)methyl)carbamate], the EC50 came to 8 nM.

In the case of `C[C@@H]1Cc2nn3c(c2CN1C(=O)Nc1ccnc(Br)c1F)C(F)(F)CCC(O)(CF)C3` (single isomer, unassigned) [Example 87, (3R,8S*)—N-(2-Bromo-3-fluoropyridin-4-yl)-11,11-difluoro-8-(fluoromethyl)-8-hydroxy-3-methyl-3,4,8,9,10,11-hexahydro-1H-pyrido[4′,3′:3,4]pyrazolo[1,5-a]azepine-2(7H)-carboxamide], the 50% effective concentration (EC50) came out at 39 nM.

As to `COC(=O)NCC1CCC(F)(F)c2c3c(nn2C1)C[C@@H](C)N(C(=O)Nc1ccc(F)c(C#N)c1)C3` (single isomer, unassigned) [Example 108, Methyl (((3R,8S*)-2-((3-cyano-4-fluorophenyl)carbamoyl)-11,11-difluoro-3-methyl-2,3,4,7,8,9,10,11-octahydro-1H-pyrido[4′,3′:3,4]pyrazolo[1,5-a]azepin-8-yl)methyl)carbamate], the EC50 is 12 nM.

Consider `N#Cc1cc(NC(=O)N2CCc3nn4c(c3C2)C(F)(F)CCC(COCC(F)F)C4)ccc1F` (single isomer, unassigned) [Example 27, (S*)—N-(3-Cyano-4-fluorophenyl)-8-((2,2-difluoroethoxy)methyl)-11,11-difluoro-3,4,8,9,10,11-hexahydro-1H-pyrido[4′,3′:3,4]pyrazolo[1,5-a]azepine-2(7H)-carboxamide], for which the EC50 was found to be 6 nM.

As to `O=C(Nc1ccc(F)c(C(F)(F)F)c1)N1CCc2nn3c(c2C1)C(F)(F)CCC(COCC(F)F)C3` (single isomer, unassigned) [Example 30, (R*)-8-((2,2-Difluoroethoxy)methyl)-11,11-difluoro-N-(4-fluoro-3-(trifluoromethyl)phenyl)-3,4,8,9,10,11-hexahydro-1H-pyrido[4′,3′:3,4]pyrazolo[1,5-a]azepine-2(7H)-carboxamide], the concentration for a half-maximal effect (EC50) was 267 nM.

`C[C@@H]1Cc2nn3c(c2CN1C(=O)Nc1ccnc(C(F)F)c1F)C(F)(F)CCC(F)(CO)C3` (single isomer, unassigned) [Example 116, (3R,8R*)—N-(2-(Difluoromethyl)-3-fluoropyridin-4-yl)-8,11,11-trifluoro-8-(hydroxymethyl)-3-methyl-3,4,8,9,10,11-hexahydro-1H-pyrido[4′,3′:3,4]pyrazolo[1,5-a]azepine-2(7H)-carboxamide]: the EC50 was found to be 10 nM.

For `N#CCC1(O)CCC(F)(F)c2c3c(nn2C1)CCN(C(=O)Nc1ccnc(Br)c1F)C3` (single isomer, unassigned) [Example 41, (R*)—N-(2-Bromo-3-fluoropyridin-4-yl)-8-(cyanomethyl)-11,11-difluoro-8-hydroxy-3,4,89,10,11-hexahydro-1H-pyrido[4′,3′:3,4]pyrazolo[1,5-a]azepine-2(7H)-carboxamide], the 50% effective concentration (EC50) worked out at 52 nM.

Regarding `C#CC1(O)CCC(F)(F)c2c3c(nn2C1)CCN(C(=O)Nc1ccc(F)c(C#N)c1)C3` (single isomer, unassigned) [Example 60, (S*)—N-(3-Cyano-4-fluorophenyl)-8-ethynyl-11,11-difluoro-8-hydroxy-3,4,8,9,10,11-hexahydro-1H-pyrido[4′,3′:3,4]pyrazolo[1,5-a]azepine-2(7H)-carboxamide], the EC50 came out at 17 nM.

As for `O=C(Nc1ccnc(C(F)F)c1F)N1CCc2nn3c(c2C1)C(F)(F)CC(O)CC3` (single isomer, unassigned) [Example 142, (S*)—N-(2-(Difluoromethyl)-3-fluoropyridin-4-yl)-11,11-difluoro-9-hydroxy-3,4,8,9,10,11-hexahydro-1H-pyrido[4′,3′:3,4]pyrazolo[1,5-a]azepine-2(7H)-carboxamide], the concentration giving a half-maximal response (EC50) came to 46 nM.

As to `C[C@@H]1Cc2nn3c(c2CN1C(=O)Nc1ccnc(Br)c1F)C(F)(F)CCC(CO)C3` (single isomer, unassigned) [Example 81, (3R,8R*)—N-(2-Bromo-3-fluoropyridin-4-yl)-11,11-difluoro-8-(hydroxymethyl)-3-methyl-3,4,8,9,10,11-hexahydro-1H-pyrido[4′,3′:3,4]pyrazolo[1,5-a]azepine-2(7H)-carboxamide], the 50% effective concentration (EC50) turned out to be 2 nM.

With `C[C@@H]1Cc2nn3c(c2CN1C(=O)Nc1ccc(F)c(C#N)c1)C(F)(F)CC(O)(CO)CC3` (single isomer, unassigned) [Example 126, (3R,9S*)—N-(3-Cyano-4-fluorophenyl)-11,11-difluoro-9-hydroxy-9-(hydroxymethyl)-3-methyl-3,4,8,9,10,11-hexahydro-1H-pyrido[4′,3′:3,4]pyrazolo[1,5-a]azepine-2(7H)-carboxamide], the 50% effective concentration (EC50) was found to be 5 nM.

Turning to `C[C@@H]1Cc2nn3c(c2CN1C(=O)Nc1ccnc(Br)c1F)C(F)(F)CCC(CO)C3` (single isomer, unassigned) [Example 77, (3R,8S*)—N-(2-Bromo-3-fluoropyridin-4-yl)-11,11-difluoro-8-(hydroxymethyl)-3-methyl-3,4,8,9,10,11-hexahydro-1H-pyrido[4′,3′:3,4]pyrazolo[1,5-a]azepine-2(7H)-carboxamide], the EC50 worked out at 14 nM.

On to `N#Cc1cc(NC(=O)N2CCc3nn4c(c3C2)C(F)(F)CCC(CO)C4)ccc1F` (single isomer, unassigned) [Example 19, (S*)—N-(3-Cyano-4-fluorophenyl)-11,11-difluoro-8-(hydroxymethyl)-3,4,8,9,10,11-hexahydro-1H-pyrido[4′,3′:3,4]pyrazolo[1,5-a]azepine-2(7H)-carboxamide], for which the half-maximal effective concentration (EC50) amounted to 4 nM.

For `C[C@@H]1Cc2nn3c(c2CN1C(=O)Nc1ccnc(Br)c1F)C(F)(F)CCC(F)(CO)C3` (single isomer, unassigned) [Example 115, (3R,8R*)—N-(2-Bromo-3-fluoropyridin-4-yl)-8,11,11-trifluoro-8-(hydroxylmethyl)-3-methyl-3,4,8,9,10,11-hexahydro-1H-pyrido[4′,3′:3,4]pyrazolo[1,5-a]azepine-2(7H)-carboxamide], the 50% effective concentration (EC50) stood at 5 nM.

For `N#Cc1cc(NC(=O)N2CCc3nn4c(c3C2)C(F)(F)CCC(O)(COCC(F)F)C4)ccc1F` (single isomer, unassigned) [Example 34, (S*)—N-(3-Cyano-4-fluorophenyl)-8-((2,2-difluoroethoxy)methyl)-11,11-difluoro-8-hydroxy-3,4,8,9,10,11-hexahydro-1H-pyrido[4′,3′:3,4]pyrazolo[1,5-a]azepine-2(7H)-carboxamide], the EC50 worked out at 17 nM.

Turning to `O=C(Nc1ccc(F)c(C(F)(F)F)c1)N1CCc2nn3c(c2C1)C(F)(F)CCC(CO)C3` (single isomer, unassigned) [Example 24, (R*)-11,11-Difluoro-N-(4-fluoro-3-(trifluoromethyl)phenyl)-8-(hydroxymethyl)-3,4,8,91011-hexahydro-1H-pyrido[4′,3′:3,4]pyrazolo[1,5-a]azepine-2(7H)-carboxamide], the concentration giving a half-maximal response (EC50) amounted to 35 nM.

As to `C[C@@H]1Cc2nn3c(c2CN1C(=O)Nc1ccnc(Br)c1F)C(F)=CC(O)CC3` (single isomer, unassigned) [Example 124, (3R,9S*)—N-(2-Bromo-3-fluoropyridin-4-yl)-11-fluoro-9-hydroxy-3-methyl-3,4,8,9-tetrahydro-1H-pyrido[4′,3:3,4]pyrazolo[1,5-a]azepine-2(7H)-carboxamide], the concentration giving a half-maximal response (EC50) came to 26 nM.

The assay is the same for the next values; noted with them: Hepatitis B virus, HepG2.2.15, 144 h, 6 days, encapsidated HBV DNA in supernatant.
With `C[C@@H]1Cc2nn3c(c2CN1C(=O)Nc1ccc(F)c(C#N)c1)C(F)(F)CC[C@H](CO)C3` (relative stereo) [Example 75], the concentration giving a half-maximal response (EC50) came out at 5 nM.
